Patent publication US20260184663A1, “INDENE COMPOUNDS, PHARMACEUTICAL COMPOSITIONS THEREOF, AND THEIR THERAPEUTIC APPLICATIONS” (NucMito Pharmaceuticals co. Ltd., priority 2022, published 2026)
Read-outs that look alike come from different tables or passages of the source.

Assays:
Assay type in all cases: cell-based
[1] = system: alpha-smooth muscle actin (α-SMA); test: Inhibition of TGF-β induced expression of alpha-smooth muscle actin (α-SMA) in CFSC cells (western blot); settings: compound at 10 μM, TGF-β (10 ng/mL), 24 hours, band intensity vs TGF-β only
How it was run: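 CFSC hepatic stellate cells in serum-free DMEM treated 24 h at 37 °C with compound at 10 μM plus TGF-β (10 ng/mL). α-SMA measured by Western blot with β-actin, ECL detection, densitometry. Percent inhibition is decrease in band intensity versus TGF-β-only cells.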

[2] = system: MDA-MB-231 (breast cancer); test: Antiproliferative activity (CCK-8 cell viability), MDA-MB-231; settings: Homo sapiens, 72 h, read-out: Antiproliferative activity in cancerous cells, MDA-MB-231 (inhibition of cell growth); for inhibition at 3.3 µM: Compound concentration: 3.3 μM; for inhibition at 10 µM: Compound concentration: 10 μM
How it was run: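 In this CCK-8 viability assay, MDA-MB-231 cells maintained in Dulbecco's modified Eagle's medium containing 10% fetal bovine serum were placed in 96-well plates (2,000-5,000 cells/well) and treated with compound for 72 h at 37° C. A 4 h incubation with 10 μL CCK-8 followed, plates were read at 450 nm, and viability was expressed against DMSO vehicle wells across replicates.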

[3] = system: HepG2 (liver cancer); test: Antiproliferative activity (CCK-8 cell viability), HepG2; settings: Homo sapiens, 72 h; for inhibition at 3.3 µM: Compound concentration: 3.3 μM; for inhibition at 10 µM: Compound concentration: 10 μM; for inhibition at 30 µM: Compound concentration: 30 μM
How it was run: (§1)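 Cells were seeded at 2,000-5,000/well (HeLa in MEM, HepG2 and SW480 in DMEM, A549 in F-12K, all with 10% FBS) and treated with compound at 3.3, 10 or 30 μM for 72 h at 37° C. CCK-8 was added for 4 h, absorbance was read at 450 nm, and viability was expressed relative to DMSO-treated wells.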

[4] = system: SW480 (colon cancer); test: Antiproliferative activity (CCK-8 cell viability), SW480; settings: Homo sapiens, 72 h; for inhibition at 3.3 µM: Compound concentration: 3.3 μM; for inhibition at 10 µM: Compound concentration: 10 μM; for inhibition at 30 µM: Compound concentration: 30 μM
How it was run: as §1

[5] = system: B16F10 (malignant melanoma); test: Antiproliferative activity (CCK-8 cell viability), B16F10; settings: Mus musculus, 72 h; for inhibition at 3.3 µM: B16-F10, Compound concentration: 3.3 μM; for inhibition at 10 µM: B16-F10, Compound concentration: 10 μM; for inhibition at 30 µM: B16-F10, Compound concentration: 30 μM
How it was run: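 Attached B16F10 cells in 96-well plates were incubated with compound at 37° C for 72 h, followed by 10 μL CCK-8 reagent per well and a further 4 h incubation. A multi-well plate reader measured absorbance at 450 nm. Percent viability across replicates was calculated against DMSO vehicle-treated cells.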

[6] = system: A431 (epidermoid carcinoma); test: Antiproliferative activity (CCK-8 cell viability), A431; settings: Homo sapiens, 72 h; for inhibition at 3.3 µM: A-431, Compound concentration: 3.3 μM; for inhibition at 10 µM: A-431, Compound concentration: 10 μM; for inhibition at 30 µM: A-431, Compound concentration: 30 μM
How it was run: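 Cell viability of compound-treated A431 cells was measured with a Cell Counting Kit-8. Each well received 10 μL of CCK-8 after 72 h of compound exposure, followed by 4 h incubation at 37° C. and a 450 nm plate-reader measurement. Percent viability was calculated relative to DMSO controls across replicates.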

[7] = system: A549 (lung adenocarcinoma); test: Antiproliferative activity (CCK-8 cell viability), A549; settings: Homo sapiens, 72 h; for inhibition at 3.3 µM: Compound concentration: 3.3 μM; for inhibition at 10 µM: Compound concentration: 10 μM; for inhibition at 30 µM: Compound concentration: 30 μM
How it was run: as §1

[8] = system: HeLa (cervical cancer); test: Antiproliferative activity (CCK-8 cell viability), HeLa; settings: Homo sapiens, 72 h; for inhibition at 3.3 µM: Compound concentration: 3.3 μM; for inhibition at 10 µM: Compound concentration: 10 μM; for inhibition at 30 µM: Compound concentration: 30 μM
How it was run: as §1

[9] = read-out: Antiproliferative activity in cancerous cells, HepG2 (inhibition of cell growth)
[10] = read-out: Antiproliferative activity in cancerous cells, SW480 (inhibition of cell growth)
[11] = read-out: Antiproliferative activity in cancerous cells, B16F10 (inhibition of cell growth)
[12] = read-out: Antiproliferative activity in cancerous cells, A431 (inhibition of cell growth)
[13] = read-out: Antiproliferative activity in cancerous cells, A549 (inhibition of cell growth)
[14] = read-out: Antiproliferative activity in cancerous cells, A549
[15] = read-out: Antiproliferative activity in cancerous cells, HELA (inhibition of cell growth)

| Compound | inhibition at 10 µM [1] [%] | inhibition at 3.3 µM [2] [%] | inhibition at 10 µM [2] [%] | inhibition at 3.3 µM [3, 9] [%] | inhibition at 10 µM [3, 9] [%] | inhibition at 3.3 µM [4, 10] [%] | inhibition at 10 µM [4, 10] [%] | inhibition at 3.3 µM [5, 11] [%] | inhibition at 10 µM [5, 11] [%] | inhibition at 3.3 µM [6, 12] [%] | inhibition at 10 µM [6, 12] [%] | inhibition at 3.3 µM [7, 13] [%] | inhibition at 10 µM [7, 13] [%] | inhibition at 3.3 µM [8, 15] [%] | inhibition at 10 µM [8, 15] [%] | further results |
| --- | --- | --- | --- | --- | --- | --- | --- | --- | --- | --- | --- | --- | --- | --- | --- | --- |
| CC1=C(CC(=O)O)c2cc(F)ccc2/C1=C\c1ccc(Sc2nc3ccccc3[nH]2)cc1 [C36, (Z)-2-(1-(4-((1H-Benzo[d]imidazol-2-yl)thio)benzylidene)-5-fluoro-2-methyl-1H-inden-3-yl)acetic acid] | < 30 | < 30 | 30 to 50 | < 30 | < 30 | < 30 | 30 to 50 | < 30 | < 30 | < 30 | < 30 | < 30 | < 30 | < 30 | 30 to 50 | inhibition at 30 µM ([3]; read-out: Antiproliferative activity in cancerous cells, HepG2): < 30%; inhibition at 30 µM ([4]; read-out: Antiproliferative activity in cancerous cells, SW480): 30 to 50%; inhibition at 30 µM ([5]; read-out: Antiproliferative activity in cancerous cells, B16F10): 30 to 50%; inhibition at 30 µM ([6]; read-out: Antiproliferative activity in cancerous cells, A431): < 30%; inhibition at 30 µM [7, 14]: 30 to 50% |
| COc1ccc2c(c1)/C(=C\c1cccc(COc3ccccc3)c1)C(C)=C2CC(=O)O [B8, (Z)-2-(6-Methoxy-2-methyl-1-(3-(phenoxymethyl)benzylidene)-1H-inden-3-yl)-acetic acid] | > 80 | < 30 | 30 to 50 | 30 to 50 | 30 to 50 | ≥ 50 | ≥ 50 | < 30 | ≥ 50 | 30 to 50 | ≥ 50 | ≥ 50 | ≥ 50 | 30 to 50 | ≥ 50 | – |
| CC1=C(CC(=O)O)c2c(F)ccc(F)c2/C1=C/c1cccc(C(F)(F)F)c1 [E13, (E)-2-(4,7-Difluoro-2-methyl-1-(3-(trifluoromethyl)benzylidene)-1H-inden-3-yl)-acetic acid] | < 30 | < 30 | < 30 | < 30 | < 30 | < 30 | < 30 | < 30 | ≥ 50 | < 30 | 30 to 50 | < 30 | ≥ 50 | 30 to 50 | 30 to 50 | inhibition at 30 µM ([2]; Compound concentration: 30 μM): < 30%; inhibition at 30 µM [3, 9]: < 30%; inhibition at 30 µM [4, 10]: < 30%; inhibition at 30 µM [5, 11]: ≥ 50%; inhibition at 30 µM [6, 12]: ≥ 50%; inhibition at 30 µM [7, 13]: ≥ 50%; inhibition at 30 µM [8, 15]: ≥ 50% |
| CC1=C(CC(=O)O)c2ccc(F)cc2/C1=C\c1ccc(COc2ccccc2)cc1 [B1, (Z)-2-(6-Fluoro-2-methyl-1-(4-(phenoxymethyl)benzylidene)-1H-inden-3-yl)-acetic acid] | < 30 | < 30 | ≥ 50 | < 30 | ≥ 50 | ≥ 50 | ≥ 50 | ≥ 50 | ≥ 50 | 30 to 50 | 30 to 50 | < 30 | < 30 | < 30 | < 30 | inhibition at 30 µM [7, 14]: 30 to 50%; inhibition at 30 µM ([8]; read-out: Antiproliferative activity in cancerous cells, HELA): 30 to 50% |
| CCc1ccc2c(c1)C(CC(=O)O)=C(C)/C2=C/c1ccc(Oc2ccc(F)cc2)cc1 [C5, (Z)-2-(5-Ethyl-1-(4-(4-fluorophenoxy)benzylidene)-2-methyl-1H-inden-3-yl)-acetic acid] | > 80 | < 30 | ≥ 50 | ≥ 50 | ≥ 50 | < 30 | < 30 | < 30 | ≥ 50 | ≥ 50 | ≥ 50 | 30 to 50 | 30 to 50 | < 30 | ≥ 50 | – |
| CC1=C(CC(=O)O)c2cc(C)ccc2/C1=C\c1cccc(COc2ccccc2)c1 [B12, (Z)-2-(2,5-Dimethyl-1-(3-(phenoxymethyl)benzylidene)-1H-inden-3-yl)acetic acid] | > 80 | ≥ 50 | ≥ 50 | < 30 | ≥ 50 | < 30 | < 30 | < 30 | 30 to 50 | ≥ 50 | ≥ 50 | 30 to 50 | ≥ 50 | < 30 | ≥ 50 | – |
| CCCC1=C(CC(=O)O)c2cc(F)ccc2/C1=C\c1cccc(Oc2ccccc2)c1 [C22, (Z)-2-(5-Fluoro-1-(3-phenoxybenzylidene)-2-propyl-1H-inden-3-yl)acetic acid] | > 80 | ≥ 50 | ≥ 50 | < 30 | ≥ 50 | < 30 | 30 to 50 | 30 to 50 | ≥ 50 | < 30 | ≥ 50 | ≥ 50 | ≥ 50 | < 30 | ≥ 50 | – |
